US8401609B2, “System, method and applications involving identification of biological circuits such as neurological characteristics” (The Board of Trustees of the Leland Stanford Junior …, priority 2007, dated 2013)
Entries after “also recorded” stand apart in the source; their conditions may differ. Like-named read-outs stand apart in the source and are kept apart here.

Key:
[1] = tested on: activity of the DG relative to CA1; assay: VSDI DG-CA1 relative activity, per slice, averaged per animal; type: in vivo, rats; details: for DG-CA1 relative activity: NNS protocol
Source text: (§1) To determine the network activity changes associated with these induced depression-related behavioral phenotypes, acute hippocampal slices were generated from the same animals for high-speed VSDI. Both the DG and CA1 networks were specifically probed for the reasons described above, anticipating that there would likely be different effects in each local network that might nonetheless each be linked to the behavioral phenotype. […] In these and all experiments, the experimenters were always blinded to treatment groups. […] The activity of the DG relative to that of CA1 has consistently provided a reliable predictor of depression-related behavioral phenotypes (FIG. 2E) that was robust to experimental variation and allowed for quantitative comparisons between individual animals.
(§2) After extracting the region of interest, the mean correlation amplitude of pixels within this region and the total area of the region of interest (as a percentage of frame size) were then calculated. The mean amplitude multiplied by this area (“total activity”) was the final statistic used to measure system response for the voltage sensitive dye imaging data. Even though voltage changes due to glia can be observed with voltage sensitive dyes, the total activity measures reported here likely indicate only neuronal responses to stimulation, as opposed to the slower responses of hippocampal glia that are not appreciably sensitive to AMPA and NMDA block especially given the short latency to peak of the VSDI traces (6.3+/−0.6 ms for 2 Hz stimulations), the lack of summation of responses following 2 Hz stimulation, and the reliance of the signal on AMPA and NMDA transmission (FIG. 1B).

[2] = tested on: Dcx+ cells; assay: Doublecortin (Dcx) staining of immature neurons; type: in vivo, rats; details: NNS protocol, at time of physiological analysis
Method: (§3) To quantify effects of the NNS antidepressant treatment on the number of newborn cells and to confirm the selective reduction of hippocampal neurogenesis by irradiation, BrdU was injected during the week of drug treatment and conducted stereological counts as described above. […] Additionally, to assess the neurogenic environment at the time of physiological analysis, the immature neuronal marker doublecortin (Dcx) was employed.

[3] = tested on: adult, female rats
[4] = tested on: BrdU+ cells in the hippocampus; assay: Unbiased stereology and phenotyping of BrdU+ cells (hippocampal neurogenesis); type: in vivo, rats; design: newborn (BrdU+) cell density: scale not given here
Method: BrdU (50 mg/kg/day) was administered daily during the second week of fluoxetine or vehicle.
BrdU (50 mg/kg/day) was administered concurrently with fluoxetine or vehicle.
Next changes in neurogenesis associated with these bidirectional changes in behavior and network activity were probed for, to determine if the network dynamics metric depends chiefly on a single biological mechanism or instead retains its validity across fundamentally different mechanisms that may underlie CMS and antidepressant responses. Neurogenesis appears to be strongly linked to antidepressant effects on the novelty-suppressed feeding task, but has not been clearly implicated in depression-related behavioral measures like the FST or in depression induction involving chronic mild stress. […] To directly investigate whether the network and behavioral effects of both CMS and antidepressant treatment could depend in part on a common underlying neurogenesis mechanism, bromodeoxyuridine (BrdU) was administered to label dividing cells during the last week of treatment in the experiment described in connection with FIG. 3, and blinded immunohistological counts from the hippocampus contralateral to that used for VSDI were conducted with unbiased stereology procedures, to determine the total number of newborn cells (FIG. 4A, 4C). For this analysis the hippocampal formation was divided into two components, dorsal and ventral. The ventral hippocampus is thought to be more involved in mood regulation. Thus, the acute slice VSDI experiments were conducted in ventral hippocampus.
as §3

[5] = tested on: dentate gyrus (DG); assay: VSDI of evoked DG activity in acute hippocampal slices from treated animals; type: in vivo, rats; details: for evoked DG activity: 2-week dosing
Method: (§4) VSDI with a digital camera system optimized for high speed, sensitivity, and resolution was used to observe the activity of intact networks within acute horizontal slices prepared from the ventral hippocampus of adult, female rats (FIG. 1A). Slices were bath loaded with the fast-response voltage-sensitive dye di-4-ANEPPS. After loading, slices were stimulated with standardized electrical pulse trains and activity was recorded with a 5 ms frame rate and 25 um spatial resolution. […] To extract reliable quantitative features of the network response from the high-speed VSDI data, cross-correlation analysis was employed to take advantage of the fact that the evoked responses occur with a uniform fast time course and delay following stimulation and that reverberatory oscillations or changes in response phase were never observed under these conditions (FIGS. 1C, 1D, 10 and 11). This cross-correlation analysis generated two plots, one corresponding to the maximal response amplitude of each pixel (FIG. 1D, top right, FIG. 11B, right), and the other corresponding to the time at which this maximal amplitude occurred (“phase,” FIG. 1D, top left, FIG. 11B, left). Phase values were consistent in the regions responding to stimulation, which were isolated computationally for further analysis (FIG. 1D, bottom, FIG. 12). The area of this region of interest and the mean amplitude of pixels in the region were then computed, and local network response (“total activity”) was calculated as the mean signal amplitude multiplied by the area of the region of interest. This measure was linear with the applied stimulus current, making it a quantitative and reliable indicator of network activity across animals (FIG. 2B).
as §1
The following algorithms provide an example implementation for use in analyzing the VSDI data collected according to the methods and systems described herein. To begin the analysis, the raw VSDI data were imported into a software application, such as MATLAB (Mathworks, Natick, Mass.). The data was represented as an initial reference frame (F), followed by each imaging data frame, which contained differential fluorescence values (ΔF). For each pixel and frame, the ΔF/F value was calculated. Each temporal frame was then spatially smoothed using a 3×3 pixel digital Gaussian kernel (σ=1):
as §2

[6] = tested on: CA1; assay: VSDI of evoked CA1 activity in acute hippocampal slices from treated animals; type: in vivo, rats; details: for evoked CA1 activity: 2-week dosing, normalized by control mean; for CA1 VSDI response: NNS protocol
Method: as §4
To determine the network activity changes associated with these induced depression-related behavioral phenotypes, acute hippocampal slices were generated from the same animals for high-speed VSDI. […] The activity of the DG relative to that of CA1 has consistently provided a reliable predictor of depression-related behavioral phenotypes (FIG. 2E) that was robust to experimental variation and allowed for quantitative comparisons between individual animals.
The following algorithms provide an example implementation for use in analyzing the VSDI data collected according to the methods and systems described herein. […] The data was represented as an initial reference frame (F), followed by each imaging data frame, which contained differential fluorescence values (ΔF). For each pixel and frame, the ΔF/F value was calculated. […]
After extracting the region of interest, the mean correlation amplitude of pixels within this region and the total area of the region of interest (as a percentage of frame size) were then calculated. […]

[7] = tested on: acute horizontal slices prepared from the ventral hippocampus; assay: Pharmacological dissection of the VSDI signal in acute hippocampal slices; type: cell-based, rats
Method: GABAzine (20 μM) and TTX (1 μM) were applied subsequently to confirm signal extinction.
VSDI with a digital camera system optimized for high speed, sensitivity, and resolution was used to observe the activity of intact networks within acute horizontal slices prepared from the ventral hippocampus of adult, female rats (FIG. 1A). Slices were bath loaded with the fast-response voltage-sensitive dye di-4-ANEPPS. After loading, slices were stimulated with standardized electrical pulse trains and activity was recorded with a 5 ms frame rate and 25 um spatial resolution. […] To extract reliable quantitative features of the network response from the high-speed VSDI data, cross-correlation analysis was employed to take advantage of the fact that the evoked responses occur with a uniform fast time course and delay following stimulation and that reverberatory oscillations or changes in response phase were never observed under these conditions (FIGS. 1C, 1D, 10 and 11). […] The area of this region of interest and the mean amplitude of pixels in the region were then computed, and local network response (“total activity”) was calculated as the mean signal amplitude multiplied by the area of the region of interest. This measure was linear with the applied stimulus current, making it a quantitative and reliable indicator of network activity across animals (FIG. 2B).

[8] = CMS five weeks or control, fluoxetine during final two weeks
[9] = 2-week dosing, 48-hour delay, mean percent time
[10] = NNS protocol, normalized by control mean

CNCCC(Oc1ccc(C(F)(F)F)cc1)c1ccccc1 (stereo not drawn) [fluoxetine]
activity of DG relative to CA1 [1, 8]: significantly increased this statistic in both CMS and control groups
DG-CA1 relative activity ([1]; irradiated animals): not following irradiation; also recorded: relied similarly on hippocampal neurogenesis
DG-CA1 relative activity ([1]; sham irradiation): significant increases; also recorded: increased the activity of DG relative to that of CA1
doublecortin (Dcx) staining, number of Dcx+ cells [2]: unaffected; also recorded: did not affect the number of Dcx+ cells
FST swimming [3, 9]: associated increases
FST mobility behaviors (swimming and climbing) [3, 8]: associated increases in mobility behaviors
FST immobility ([3]; CMS five weeks or control, fluoxetine during final two weeks, 48 hour delay): decreased immobility in both control and CMS groups; also recorded: reversing the behavioral effects of CMS
FST swimming ([3]; NNS protocol, sham irradiation): increases in swimming
total number of newborn neurons (BrdU+/NeuN+) in the DG ([4]; NNS protocol): specifically increased the total number of newborn neurons; also recorded: selective increase in neurogenesis
BrdU+ cell density, effect in words ([4]; dorsal hippocampus): no such effects were observed
newborn (BrdU+) cell density ([4]; dorsal hippocampus, CMS+fluoxetine): 3.41 cells/mm^3
newborn (BrdU+) cell density ([4]; dorsal hippocampus, fluoxetine without CMS): 3.03 cells/mm^3
newborn (BrdU+) cell density ([4]; ventral hippocampus, CMS+fluoxetine): 2.38 cells/mm^3
BrdU+ neuron density (NeuN, Dcx phenotyping) ([4]; ventral hippocampus, CMS/fluoxetine experiment): increased number of new neurons; also recorded: specifically increased
newborn (BrdU+) cell density ([4]; ventral hippocampus, fluoxetine without CMS): 2.47 cells/mm^3
BrdU+ cell density, effect in words ([4]; ventral hippocampus, in the presence and absence of CMS): increased number of new cells; also recorded: robustly increased
total BrdU+ cells per hippocampus ([4]; weeklong fluoxetine 20 mg/kg/day, BrdU concurrently): increased numbers of new cells; also recorded: increased the BrdUi cell density
evoked DG activity ([5]; normalized by control mean): increased activity in DG
DG VSDI response ([5]; NNS protocol, irradiated animals): no fluoxetine-induced differences
DG active network area [5, 10]: modulated similarly to the total activity measure
DG mean signal amplitude [5, 10]: not modulated
DG VSDI response ([5]; NNS protocol, sham irradiation): significantly increased response; also recorded: neurogenesis dependent increase of DG activity; also recorded: increased DG activity
evoked CA1 activity [6]: reduced activity in CA1
CA1 VSDI response [6]: significantly decreased response; also recorded: decreased CA1 activity
CA1 VSDI response ([6]; irradiated animals): unaffected by irradiation

O=C(CCCN1CCC(O)(c2ccc(Cl)cc2)CC1)c1ccc(F)cc1 [haloperidol]
relative activity between DG and CA1 ([1]; 2-week dosing): absent
FST climbing [3, 9]: No such effects were observed
FST swimming [3, 9]: No such effects were observed
evoked DG activity ([5]; normalized by control mean): increased in antidepressant, but not haloperidol; also recorded: no effect

NC(CCCP(=O)(O)O)C(=O)O [D-AP5]
VSDI signal ([7]; concurrent D-AP5 application 25 μM with NBQX): abolished; also recorded: extinguished the signal

NS(=O)(=O)c1cccc2c1c([N+](=O)[O-])cc1nc(O)c(O)nc12 [NBQX]
VSDI signal ([7]; NBQX application 10 μM, evoked by electrical stimulation): greatly reduced; also recorded: nearly abolished the signal

CN(C)CCCN1c2ccccc2CCc2ccccc21 [imipramine]
evoked DG activity ([5]; normalized by control mean): increased activity in DG
evoked CA1 activity [6]: reduced activity in CA1
